This note sets out measurements from patent US8299074B2, “P38 MAP kinase inhibitors” (RespiVert Ltd., priority 2008, dated 2012).

Read-outs that look alike come from different tables or passages of the source.

The subject of series [1] is U937 cells. The series can be described thus: LPS-induced IL-8 release in U937 cells. In kind it is cell-based. To be noted: Homo sapiens, read-out: DU937 (LPS) IL-8 IC50. A digest of the protocol:
(§1)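 U937 cells differentiated with PMA (100 ng/ml) for 48 to 72 hours, pre-treated with compound for 2 hrs, then stimulated with E. coli O111:B4 LPS for 4 hrs. Supernatant TNFα and IL-8 measured by sandwich ELISA; inhibition at each concentration versus vehicle control.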

A further series deals with THP-1 cells. The series can be described thus: LPS-induced TNF alpha release in THP-1 cells. As to conditions: Homo sapiens. In kind it is cell-based. The protocol: LPS-Induced TNF Alpha Release in THP-1 Cells: Potency […] Coli; O111:B4, Sigma) for 4 hr and the supernatant collected for determination of TNFα concentration by sandwich ELISA (Duo-set, R&D systems). The inhibition of TNFα production was calculated at each concentration by comparison with vehicle control.

The target of the next series is T1, p38 MAPK alpha (MAPK14) (Homo sapiens, UniProt Q16539).
T1 construct: purchased Invitrogen
The series can be described thus: Enzyme inhibition assay, p38 MAPK alpha (FRET, Z-LYTE, via MAPKAP-K2). In kind it is biochemical. To be noted: read-out: Enzyme p38α IC50.

Series [2] deals with Differentiated U937 cells. The series can be described thus: MTT assay (cell viability). In kind it is cell-based, human. The gist of the method: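 Differentiated U937 cells pre-incubated with compound 4 h in 5% FCS or 24 h in 10% FCS; MTT read at 550 nm after DMSO solubilisation. Percentage loss of viability relative to 0.5% DMSO vehicle; apparent increases appear as negative percentages.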

Series [3] deals with U937 cells. Put plainly: LPS-induced TNF alpha release in U937 cells. In kind it is cell-based. A digest of the protocol:
as §1

A further series relates to BEAS2B cells. The series can be described thus: Poly I:C-induced ICAM-1 induction in BEAS2B cells. To be noted: Homo sapiens, BEAS-2B, read-out: BEAS2B (polyIC) ICAM1 IC50. The class given is cell-based. A digest of the protocol:
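Poly I:C (1 ug/ml) transfected into BEAS2B cells after 2 h compound pre-incubation. Surface ICAM-1 measured by cell-based ELISA 18 h post-transfection (HRP, OD450–655), corrected for cell number by OD595.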

[4] abbreviates: THP-1, Table 3, read-out: THP-1 (LPS) TNFα IC50.
The mark [5] stands for this setting: Table 3, first MTT column, loss of cell viability at 1 μg/ml.
Where [6] appears, read: Table 3, second MTT column, loss of cell viability at 1 μg/ml.
Setting [7] is: Homo sapiens; read-out: DU937 (LPS) TNFα REC50.
Where [8] appears, read: THP-1, Table 2, read-out: THP-1 (LPS) TNFα IC50.
Setting [9] is: Table 2, loss of cell viability at 1 μg/ml.
Where [10] appears, read: Table 2, loss of cell viability, test conducted at 10 μg/ml.

T1 sequence (Q16539 whole entry): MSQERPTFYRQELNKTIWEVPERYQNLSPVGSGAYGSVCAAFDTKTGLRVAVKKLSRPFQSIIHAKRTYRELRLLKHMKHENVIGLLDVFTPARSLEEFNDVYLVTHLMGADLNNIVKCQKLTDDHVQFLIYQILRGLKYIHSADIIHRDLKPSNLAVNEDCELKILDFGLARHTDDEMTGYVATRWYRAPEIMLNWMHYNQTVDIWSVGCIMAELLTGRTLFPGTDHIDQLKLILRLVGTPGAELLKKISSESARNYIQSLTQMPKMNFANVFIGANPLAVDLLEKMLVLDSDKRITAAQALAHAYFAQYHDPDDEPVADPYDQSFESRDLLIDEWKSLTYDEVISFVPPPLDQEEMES

For `Cc1ccc(-n2nc(C(C)(C)C)cc2NC(=O)Nc2ccc(Oc3ccnc(NC(=O)NCC(=O)N4CCN(C)CC4)c3)c3ccccc23)cc1` [Example 61, 1-(2-(3-(4-(4-(3-(3-tert-Butyl-1-p-tolyl-1H-pyrazol-5-yl)ureido)naphthalen-1-yloxy)pyridin-2-yl)ureido)acetyl)-4-methylpiperazine], the IC50 with U937 cells [1] (Table 3), in the series with THP-1 cells (setting [4]), at p38 MAPK alpha (MAPK14) (Table 3) and in the series with BEAS2B cells (Table 3) was less than 0.01 µM in each case. Besides, the “DU937 (cell viability) MTT assay 4 h” value in series [2] (setting [5]) and in series [2] (setting [6]) was “− (<=30%)” throughout. In addition, the EC50 with U937 cells [3] (setting [7]) was less than 0.01 µM.

`Cc1ccc(-n2nc(C(C)(C)C)cc2NC(=O)Nc2ccc(Oc3ccnc(NC(=O)NCC(=O)NCCN4CCOCC4)c3)c3ccccc23)cc1` [Example 57, 2-(3-(4-(4-(3-(3-tert-Butyl-1-p-tolyl-1H-pyrazol-5-yl)ureido)naphthalen-1-yloxy)pyridin-2-yl)ureido)-N-(2-morpholinoethyl)acetamide]: the IC50 with U937 cells [1] (Table 3) is less than 5 µM; in the series on THP-1 cells (setting [4]) it was less than 0.01 µM; on p38 MAPK alpha (MAPK14) (Table 3), less than 0.01 µM; in the series on BEAS2B cells (Table 3), less than 5 µM. For the same compound, the “DU937 (cell viability) MTT assay 4 h” value in series [2] (setting [5]) and in series [2] (setting [6]) was “− (<=30%)” throughout. In addition, in the series with U937 cells [3] (setting [7]), the EC50 was less than 5 µM.

For the compound `Cc1ccc(-n2nc(C(C)(C)C)cc2NC(=O)Nc2ccc(Oc3ccnc(NC(=O)CNC(N)=O)c3)c3ccccc23)cc1` [Example 14, N-(4-(4-(3-(3-tert-Butyl-1-p-tolyl-1H-pyrazol-5-yl)ureido)naphthalen-1-yloxy)pyridin-2-yl)-2-ureidoacetamide], the IC50 is less than 5 µM in the series on U937 cells [1] (Table 2), less than 5 µM with THP-1 cells (setting [8]), less than 0.01 µM on p38 MAPK alpha (MAPK14) (Table 2) and less than 5 µM in the series on BEAS2B cells (Table 2). For the same compound, the “DU937 (cell viability) MTT assay 4 h” value in series [2] (setting [9]) is listed as “− (<=30%)”. In addition, the “DU937 (cell viability) MTT assay 24 h” value in series [2] (setting [9]) is “− (<=30%)”. In addition, the EC50 with U937 cells [3] (setting [7]) was less than 5 µM.

Take `Cc1ccc(-n2nc(C(C)(C)C)cc2NC(=O)Nc2ccc(Oc3ccnc(NC(N)=O)c3)c3ccccc23)cc1` [Example 29, 4-(4-(3-(3-tert-Butyl-1-p-tolyl-1H-pyrazol-5-yl)ureido)naphthalen-1-yloxy)pyridin-2-yl urea]: the IC50 in the series with U937 cells [1] (Table 3) is less than 5 µM; in the series with THP-1 cells (setting [4]) it was less than 0.01 µM; at p38 MAPK alpha (MAPK14) (Table 3) it was less than 0.01 µM; in the series with BEAS2B cells (Table 3), less than 0.01 µM. Besides, the “DU937 (cell viability) MTT assay 4 h” value in series [2] (setting [5]) and in series [2] (setting [6]) was “− (<=30%)” in each case. The EC50 in the series on U937 cells [3] (setting [7]) is less than 0.01 µM.

`Cc1ccc(-n2nc(C(C)(C)C)cc2NC(=O)Nc2ccc(Oc3ccnc(NC(=O)CNC(=O)N4CCOCC4)c3)c3ccccc23)cc1` [Example 20, N-(2-(4-(4-(3-(3-tert-Butyl-1-p-tolyl-1H-pyrazol-5-yl)ureido)naphthalen-1-yloxy)pyridin-2-ylamino)-2-oxoethyl)morpholine-4-carboxamide]: the IC50 in the series on U937 cells [1] (Table 2) was less than 5 µM; in the series on THP-1 cells (setting [8]) it was less than 0.01 µM; on p38 MAPK alpha (MAPK14) (Table 2) it was less than 0.01 µM; in the series on BEAS2B cells (Table 2), less than 5 µM. For the same compound, the “DU937 (cell viability) MTT assay 4 h” value in series [2] (setting [9]) was “− (<=30%)”. In addition, in series [2] (setting [9]), the “DU937 (cell viability) MTT assay 24 h” value is given as “− (<=30%)”. Moreover, the EC50 with U937 cells [3] (setting [7]) was less than 0.01 µM.

For `CCNC(=O)Nc1cc(Oc2ccc(NC(=O)Nc3cc(C(C)(C)C)nn3-c3ccc(C)cc3)c3ccccc23)ccn1` [Example 28, N-Ethyl-N′-4-(4-(3-(3-tert-butyl-1-p-tolyl-1H-pyrazol-5-yl)ureido)naphthalen-1-yloxy)pyridin-2-ylurea], the IC50 is less than 5 µM with U937 cells [1] (Table 3), less than 0.01 µM in the series on THP-1 cells (setting [4]), less than 5 µM on p38 MAPK alpha (MAPK14) (Table 3) and less than 5 µM in the series on BEAS2B cells (Table 3). Also, the “DU937 (cell viability) MTT assay 4 h” value in series [2] (Table 3, first MTT column, loss of cell viability, test conducted at 10 μg/ml) is “−^$ (<=30%)”; in series [2] (Table 3, second MTT column, loss of cell viability, test conducted at 10 μg/ml), “−^$ (<=30%)”. In the series on U937 cells [3] (setting [7]), the EC50 was less than 5 µM.

As to `CNC(=O)Nc1cc(Oc2ccc(NC(=O)Nc3cc(C(C)(C)C)nn3-c3ccc(C)cc3)c3ccccc23)ccn1` [Example 36], the IC50 was less than 5 µM with U937 cells [1] (Table 3), less than 0.01 µM in the series on THP-1 cells (setting [4]), less than 5 µM on p38 MAPK alpha (MAPK14) (Table 3) and less than 0.01 µM in the series on BEAS2B cells (Table 3). Besides, the “DU937 (cell viability) MTT assay 4 h” value in series [2] (setting [5]) and in series [2] (setting [6]) was “− (<=30%)” throughout. Further, the EC50 in the series with U937 cells [3] (setting [7]) was less than 0.01 µM.

In the case of `Cc1ccc(-n2nc(C(C)(C)C)cc2NC(=O)Nc2ccc(Oc3ccnc(NC(=O)CNC(=O)C4CCOCC4)c3)c3ccccc23)cc1` [Example 16, N-(2-(4-(4-(3-(3-tert-Butyl-1-p-tolyl-1H-pyrazol-5-yl)ureido)naphthalen-1-yloxy)pyridin-2-ylamino)-2-oxoethyl)tetrahydro-2H-pyran-4-carboxamide], the IC50 with U937 cells [1] (Table 2), in the series with THP-1 cells (setting [8]), on p38 MAPK alpha (MAPK14) (Table 2) and in the series with BEAS2B cells (Table 2) was less than 0.01 µM in each case. Further, the “DU937 (cell viability) MTT assay 4 h” value in series [2] (setting [9]) was “− (<=30%)”. Moreover, in series [2] (setting [9]), the “DU937 (cell viability) MTT assay 24 h” value is given as “+ (>30%)”. For the same compound, in the series with U937 cells [3] (setting [7]), the EC50 was less than 0.01 µM.

Turning to `COCCNCC(=O)Nc1cc(Oc2ccc(NC(=O)Nc3cc(C(C)(C)C)nn3-c3ccc(C)cc3)c3ccccc23)ccn1` [Example 13, N-(4-(4-(3-(3-tert-Butyl-1-p-tolyl-1H-pyrazol-5-yl)ureido)naphthalen-1-yloxy)pyridin-2-yl)-2-(2-methoxyethylamino)acetamide], the IC50 in the series on U937 cells [1] (Table 2), in the series with THP-1 cells (setting [8]), on p38 MAPK alpha (MAPK14) (Table 2) and with BEAS2B cells (Table 2) was less than 0.01 µM in each case. Besides, the “DU937 (cell viability) MTT assay 4 h” value in series [2] (setting [10]) is recorded as “−^$ (<=30%)”. Besides, the “DU937 (cell viability) MTT assay 24 h” value in series [2] (setting [10]) is on record as “+^$ (>30%)”. For the same compound, the EC50 with U937 cells [3] (setting [7]) was less than 0.01 µM.

With `COCC(=O)Nc1cc(Oc2ccc(NC(=O)Nc3cc(C(C)(C)C)nn3-c3ccc(C)cc3)c3ccccc23)ncn1` [Example 63, N-(6-(4-(3-(3-tert-Butyl-1-p-tolyl-1H-pyrazol-5-yl)ureido)naphthalen-1-yloxy)pyrimidin-4-yl)-2-methoxyacetamide], the concentration for half-maximal inhibition (IC50) is less than 0.01 µM in the series on U937 cells [1] (Table 1); less than 0.01 µM in the series on THP-1 cells (THP-1, Table 1, read-out: THP-1 (LPS) TNFα IC50); less than 0.01 µM at p38 MAPK alpha (MAPK14) (Table 1); less than 5 µM in the series with BEAS2B cells (Table 1). The “DU937 (cell viability) MTT assay 4 h” value in series [2] (Table 1, MTT, loss of cell viability, test conducted at 10 μg/ml) is listed as “+^$ (>30%)”; in series [2] (Table 1, first MTT column, loss of cell viability, test conducted at 10 μg/ml) it was “−^$ (<=30%)”. Besides, the EC50 in the series on U937 cells [3] (setting [7]) was less than 0.01 µM.

`Cc1ccc(-n2nc(C(C)(C)C)cc2NC(=O)Nc2ccc(Oc3ccnc(NC(=O)NC4CCN(C)CC4)c3)c3ccccc23)cc1` [Example 50, N-(1-Methyl)piperidin-4-yl-N′-4-(4-(3-(3-tert-butyl-1-p-tolyl-1H-pyrazol-5-yl)ureido)naphthalen-1-yloxy)pyridin-2-ylurea]: the IC50 is less than 0.01 µM in the series on U937 cells [1]; less than 0.01 µM in the series with THP-1 cells (THP-1, read-out: THP-1 (LPS) TNFα IC50); less than 0.01 µM at p38 MAPK alpha (MAPK14) (Table 3); less than 0.01 µM in the series with BEAS2B cells. Moreover, the entries for the “DU937 (cell viability) MTT assay 4 h” value in series [2] (setting [5]) and in series [2] (setting [6]) were “− (<=30%)” and “+ (>30%)”, respectively. Besides, in the series with U937 cells [3] (Homo sapiens, read-out: DU937 (LPS) TNFα REC50), the EC50 was less than 0.01 µM.

`Cc1ccc(-n2nc(C(C)(C)C)cc2NC(=O)Nc2ccc(Oc3ccnc(NC(=O)N(C)CCN4CCOCC4)c3)c3ccccc23)cc1` [Example 46, N-Methyl-N-(2-(morpholin-4-yl)ethyl)-N′-4-(4-(3-(3-tert-butyl-1-p-tolyl-1H-pyrazol-5-yl)ureido)naphthalen-1-yloxy)pyridin-2-ylurea]: the half-inhibitory concentration (IC50) in the series with U937 cells [1] (Table 3) is less than 0.01 µM; with THP-1 cells (setting [4]), less than 5 µM; on p38 MAPK alpha (MAPK14) (Table 3) it was less than 0.01 µM; with BEAS2B cells (Table 3) it was less than 5 µM. Besides, the “DU937 (cell viability) MTT assay 4 h” value in series [2] (setting [5]) and in series [2] (setting [6]) was “− (<=30%)” each time. Further, in the series with U937 cells [3] (setting [7]), the EC50 is less than 0.01 µM.

By IC50 is commonly meant the concentration needed to halve the response being measured.
